In patent publication US6156765A, “Method of treating and preventing vasospasm” (The United States of America as represented by the …, priority 1996, dated 2000):
“And” between values parts separate entries of the source, which are not always exact repeats. Equal values may be shown once.

Legend:
[1] = system: right middle cerebral artery (R MCA); experiment: Arteriographic vasospasm of the R MCA in primate model of SAH (autologous clot placement); type: in vivo, cynomologous macaques; conditions: for arteriographic vasospasm: 70 mg/kg/day
Description: (§1) Eleven (11) cynomologous macaques (8 male and 3 female, weight 3.0-5.9 kg.) were randomly divided into 2 groups. Craniotomy was performed in all animals and autologous clot was placed around the right middle cerebral artery (R MCA) after the arachnoid membrane was removed, as described elsewhere [Pluta et al., J. Neurosurg. 77:740-748 (1992)]. Six animals (3 male and 3 female) received IV infusion of 2,2'-dipyridyl (70 mg/kg/day) continuously for 14 days. Between postoperative days 7 and 10, cerebral arteriography was used to assess the presence and degree of vasospasm using methods previously described [Pluta et al., J. Neurosurg. 77:740-748 (1992)]. The five control animals (all male) received IV infusion of saline in a volume equal to that delivered in the experimental group (10-15 cc/kg/day). Two pilot animals were also used in an initial phase in order to establish an effective experimental dose. One received 44 mg/kg/day of IV 2,2'-dipyridyl, and the other received up to 100 mg/kg/8 hrs of IV 2,2'-dipyridyl.
Each monkey underwent arteriographic study of the R MCA 3 to 21 days before surgery and 7 to 10 days after clot placement [Pluta et al., J. Neurosurg. 77:740-748 (1992)]. Under general anesthesia (ketamine 10 mg/kg and isoflurane) and sterile conditions, a cutdown of the right femoral artery was performed and a No. 3 French catheter was advanced to the right ICA. Fluoroscopy (C-arm; OEC) and intravenous contrast (2 cc Conray, 60%; Malinkrodt Medical, St. Louis, Mo.), were used to acquire subtraction images of the vessel. A radiopaque ruler was placed in the field to allow standardized measurements.
(§2) All studies were performed in the standard anteroposterior projection (AP). During the arteriography, the end-tidal CO2 was maintained at 40 mm Hg and core body temperature was maintained at 37 degrees Celsius using a heating pad. Blood pressures were monitored during all procedures.
Placement of Subarachnoid Clot and Indwelling Intravenous Catheter
As in previous studies [Pluta et al., J. Neurosurg. 77:740-748 (1992)], each animal was anesthetized as follows. Each monkey was given an injection of ketamine (10 mg/kg IM), atropine sulfate (0.05 mg/kg IM), and sodium thiopental (25 mg/kg IV). The animals were intubated and ventilated with isoflurane (0.5%-1.0%) and 100% O2 and paralyzed with pancuronium (0.1 mg/kg). Each animal was hyperventilated to an end-tidal CO2 of 30 to 40 mm Hg.
Each animal was placed in the supine position for a right frontotemporal craniotomy. Under sterile conditions, the dura was opened and the R MCA was identified in the sylvian fissure. Using the operating microscope, the arachnoid membrane over the R MCA was dissected from the trifurcation to the origin of the vessel at the ICA bifurcation. 8-10 cc of autologous clotted arterial blood obtained by an assistant via a left femoral cutdown was then placed along the length of the exposed vessel. The dura was then closed in a watertight fashion, followed by the muscle and skin layers.
Each animal was then repositioned for placement of a 6.6 French Broviac catheter in the left femoral vein. […] The distal end of the catheter was passed subcutaneously to the midscapular region and secured. Each monkey was fitted in a jacket containing an infusion pump (Disetronic Medical Systems, Plymouth, Minn.) which delivered 70 mg/kg (60 cc/24 hours) of the 2,2'-dipyridyl solution. Each monkey was sedated daily with ketamine (10 mg/kg IM) to change the delivery pump. […]

[2] = Serum iron concentration in treated animals; type: in vivo, cynomologous macaques; conditions: drug-treated animals, 70 mg/kg/day
Description: as §1
Plasma samples were collected on days 0 and 7 of each experiment and were analyzed by Maryland Medical Pathology (Rockville, Md.) for serum iron and percent transferrin saturation. Due to the molecular complexity of iron chelators, direct assays for these drugs are not available. […]

transferrin = experiment: Percent transferrin saturation in treated animals; type: in vivo, cynomologous macaques
Description: as §1
Plasma samples were collected on days 0 and 7 of each experiment and were analyzed by Maryland Medical Pathology (Rockville, Md.) for serum iron and percent transferrin saturation. Due to the molecular complexity of iron chelators, direct assays for these drugs are not available.
Data are reported as means of measurements by three individuals ±SEM and compared using an unpaired […] test. Significance was accepted at p<0.05.

[3] = Clinical observations for signs of drug toxicity; type: in vivo, cynomologous macaques
Description: as §1
The monkeys were observed daily for changes in weight, feeding, behavior, alertness, and neurologic function. The monkeys also were observed closely for signs of drug toxicity, including tremors, emesis, vomiting, diarrhea, seizures, and CNS depression [Sigma MSDS, CAS #366-18-7, 1994].
Pilot studies were done to determine the experimental dosage. […] The second pilot animal received up to 100 mg/kg/8 hours. […] These two pilot animals were then excluded from further data analysis.

[4] = system: liver, kidney, brain and other tissues; experiment: Gross and microscopic anatomic pathology; type: in vivo, cynomologous macaques; design: key to Toxicity Liver: L+: swelling of hepatocytes; L++: degeneration; L+++: lipidosis (#73, #105), regeneration (885N); conditions: IV 70 mg/kg/day for 14 days
Description: as §1
Tissues were studied for gross and microscopic anatomic pathology by Dr. Michael Eckhaus and staff (Veterinary Resources Program, National Center for Research Resources, NIH, Bethesda, Md.).

[5] = Blood pressure monitoring; type: in vivo, cynomologous macaques; conditions: all animals except pilot animal receiving 100 mg/kg/8 hours; 14-day treatment
Description: as §1, §2

[6] = ferric iron; cited from earlier work
[7] = ferrous iron; cited from earlier work
[8] = Peters et al. 1966; Oubidar et al. 1994; cited from earlier work
[9] = Harada et al. 1992; Vollmer et al. 1991; cited from earlier work
[10] = NO versus oxygen; cited from earlier work
[11] = Afshar et al. 1995; cited from earlier work
[12] = background statement; cited from earlier work
[13] = pilot animal, IV 44 mg/kg/24 hours for 14 days

For `c1ccc(-c2ccccn2)nc1` [2,2'-dipyridyl], the arteriographic vasospasm ([1]; IV 70 mg/kg/day for 14 days, n=6, postoperative day 7-10) was “no arteriographic vasospasm”, the arteriographic vasospasm ([1]; IV 70 mg/kg/day for 14 days, n=6, postoperative day 7-10, listed as DP) was “no spasm” and the “mean AP area of the proximal portion of the MCA, of the baseline area” value ([1]; IV 70 mg/kg/day for 14 days, n=6, postoperative day 7-10, mean ± SEM, p<0.0001, control 44.8%±4.6%) was 3.9%±4.3. The “vasospasm (reduction of AP area of R MCA)” value [1, 13] was 20%, the vasospasm grade [1, 13] was “mild (reduction in the AP area of the defined segment of the MCA of 12-25%)” and the “serum iron, day 7 as compared to day 0” value [2] was “markedly reduced”. For the same compound, the “percent saturation of transferrin, change in treated animals” value (transferrin; 70 mg/kg/day) was “decreased”, the “TransFe sat % Day 0” value (transferrin; individual monkey, day 0, IV 70 mg/kg/day, 70 mg/kg/day) was 40% and 32% and 31% and 33% and the “TransFe sat % Day 7” value (transferrin; individual monkey, day 7, IV 70 mg/kg/day, 70 mg/kg/day) was 2% and 0% and -1% and -2% and -4%. The “TransFe sat % Day 0, Mean” value (transferrin; mean of table, day 0, IV 70 mg/kg/day) was 34 ± 4%, the “TransFe sat % Day 7, Mean” value (transferrin; mean of table, day 7, p < 0.0001, IV 70 mg/kg/day) was -1.2 ± 2% and the “toxicity at the effective dose” value ([3]; 70 mg/kg/day) was “mild”. The “resolution of tremors and leg weakness, animal #1” value ([3]; IV 70 mg/kg/day) was ≤ 4 days, the “resolution of tremors and leg weakness, animal #2” value ([3]; IV 70 mg/kg/day) was “did not resolve in animal #2 by day 14” and the “resolution of tremors and leg weakness, animal #4” value ([3]; IV 70 mg/kg/day) was ≤ 6 days. For the same compound, the toxic symptoms ([3]; animals #1, #2, and #4, IV 70 mg/kg/day for 14 days) was “mild tremors of the upper and lower extremities, and leg weakness”, the toxic symptoms ([3]; animals #3, #5, and #6, IV 70 mg/kg/day for 14 days) was “no toxic symptoms” and the “weight loss, changes in feeding habits, or alertness” value ([3]; control or treated animals, IV 70 mg/kg/day for 14 days) was “None”. The signs of toxicity [3, 13] was “no sign of toxicity”, the symptoms of toxicity ([3]; pilot animal, IV up to 100 mg/kg/8 hours, sacrificed on fourth day of drug delivery) was “symptoms of toxicity (tremors, emesis, and diarrhea)” and the “brain changes (substantia nigra, cerebellum Purkinje cells)” value [4] was “No brain changes”. For the same compound, the “gross pathology: brain, liver, kidney, lymph nodes, spleen, intestine, gonads, or skeletal or cardiac muscle” value [4] was “no toxicity”, the “kidney pathology (collecting tubules), animals #2 and #5” value [4] was “Multifocal casts” and the “kidney pathology, animals #1, #3, #4, or #6” value [4] was “No sign of nephrotoxicity”. The “liver pathology, animals #1, #3, #4, and #5” value [4] was “Hepato-cellular swelling”, the “liver pathology, animals #2 and #6” value [4] was “Hepatocellular degeneration” and the “liver pathology, overall” value [4] was “Mild changes”. The “microscopic pathology: brain (substantia nigra and cerebellar Purkinje cells), lymph nodes, spleen, intestine, gonads, or skeletal or cardiac muscle” value [4] was “no toxicity”, the “Toxicity Liver” value ([4]; individual monkey, 70 mg/kg/day) was “L+ and L++” and the “blood pressures during preoperative and postoperative arteriography” value [5] was “stable and equivalent blood pressures”.

For `CC(=O)N(O)CCCCCNC(=O)CCC(=O)N(O)CCCCCNC(=O)CCC(=O)N(O)CCCCCN` [deferoxamine], the “deferoxamine-iron stability constant for Fe^+3” value [6] is listed as 10^31, the “deferoxamine-iron stability constant for Fe^+2” value [7] is listed as 10^2 to 10^14 and the “CSF levels before toxic systemic effects appear” value [8] is listed as “adequate CSF levels cannot be achieved before toxic systemic effects appear”. The “penetrability of the blood-brain barrier” value [8] was “limited penetrability” and the “success in potential therapies for vasospasm” value [9] was “limited success”.

For “Hemoglobin: Hemoglobin has a strong affinity for NO”, the “binding to NO more readily than to oxygen” value [10] is listed as 1,500 fold.

In the case of nitric oxide [NO], the “effect of intracarotid infusion on vasospasm” value [11] is given as “reversal of vasospasm”.

In the case of “oxyhemoglobin: the clinically-relevant vasospastic agent”, the vasospastic activity [12] is listed as “vasospastic”.
